Laboratory results: PMC5333415, “Enhancement of scutellarin oral delivery efficacy by vitamin B12-modified amphiphilic chitosan derivatives to treat type II diabetes induced-retinopathy” (Journal of Nanobiotechnology, 2017)
≈ marks a conversion by molar mass, not a printed value. Where two headings read alike, the source gives them in different places.

Assays:
[1] = cited from earlier work
[2] = tested on: central retinal artery of type II diabetic rats; assay: Color Doppler sonography of central retinal vasculature, type 2 diabetic model; assay type: in vivo, Sprague–Dawley rats; settings: 40 mg/kg/day scutellarin
Method: (§1) Type 2 diabetes was induced in male Sprague–Dawley rats (weighing 230–250 g, Experimental Animal Center of Sun Yat-sen University, China. Certificate No: SCXK (Q) 2011-0029). All animals were housed five per cage in a room and maintained at a constant temperature (22 °C) under a 12/12 h light/dark cycle. All procedures were carried out according to the National Institutes of Health Guide for Care and Use of Laboratory Animals and were approved by the Bioethics Committee of Sun Yat-sen University. Rats were randomly assigned to a control group, a Scu group (normal rats with 40 mg/kg/day scutellarin treatments), and five type II diabetes model groups (n = 8/group). The control and Scu groups were fed for 16 weeks on regular standard diets, while rats from type II diabetes model groups (T2D) were fed a high-fat (HFS, Guangdong Medical Laboratory Animal Center, Guangzhou, China) diet for 16 weeks that consisted of 30% from total kcal from fats, 55% from carbohydrates and 15% from protein. After 8 weeks on the HFS diet, rats in the T2D groups were fasted overnight and each rat received a single intraperitoneal injection of streptozotocin (STZ, Sigma, USA) at a dose of 30 mg/kg body weight the following morning while the rats in the control group were injected with an equal volume of citrate buffer. The STZ was freshly diluted in citrate buffer (0.1 mol/l, pH 4.0). After the injection, the HFS diet feeding was continued. Blood glucose and body weight were monitored 3 days after the STZ or citrate buffer injection, and once a week thereafter. […]
Prior to sacrifice, all rats were anesthetized and color Doppler sonography analysis of the right eye was performed. […] At least three measurements were recorded for each animal and the mean of the three readings was taken as the representative value. The resistivity index (RI) of the central retinal artery (CRA) was calculated by subtracting the diastolic velocity (DV) from the peak systolic velocity (SV) and then dividing by the systolic velocity [(SV − DV)/SV] […]

[3] = Pharmacokinetics study in vivo, single oral dose; settings: male, Sprague-Dawley, rat, rats, oral gavage, scutellarin dose 40 mg/kg, n = 6, mean ± SD; for half-life: plasma, po, 40 mg/kg
Method: Male Sprague–Dawley rats (weighing 220–250 g) were fasted for 12 h, but allowed water ad libitum the day before drug administration. Scutellarin, Chit-DC-Scu, and Chit-DC-VB12-Scu were resuspended in PBS and administered to rats (at the same scutellarin dose of 40 mg/kg) by oral gavage. Blood samples (0.2 ml) were collected from the tail vein of each rat before dosing and at 0.25, 0.5, 0.75, 1, 2, 3, 5, 8, 12, 24 h post-dosing. An equal volume of 0.9% saline solution was injected after each collection. Plasma samples were obtained by centrifugation at 10,000 rpm for 10 min immediately after blood collection and were stored at −20 °C until analysis. HPLC (Agilent 1100, USA) was used to determine the concentration of scutellarin in plasma.

[4] = tested on: membranes over expressing several common transporters; parameters: method as in PMID 27586020; settings: cited from earlier work
[5] = tested on: VEGF; assay: Western blot of retinal homogenates, VEGF; assay type: in vivo, Sprague–Dawley rats; settings: diabetic rats, 40 mg/kg/day scutellarin, 8 weeks, compared to diabetic rats treated with or without Chit-DC
Method: as §1, with “After 8 weeks on the HFS diet, rats in the T2D groups were fasted overnight and each rat received a single intraperitoneal injection of streptozotocin (STZ, Sigma, USA) at a dose of 30 mg/kg body weight the following morning while the rats in the control group were injected with an equal volume of citrate buffer. The STZ was freshly diluted in citrate buffer (0.1 mol/l, pH 4.0). After the injection, the HFS diet feeding was continued.” left out

[6] = Solubility; assay type: physicochemical
[7] = tested on: VEGFR2; assay: Western blot of retinal homogenates, VEGFR2; assay type: in vivo, Sprague–Dawley rats; settings: diabetic rats, 40 mg/kg/day scutellarin, 8 weeks, compared to diabetic rats treated with or without Chit-DC
Method: as §1, with “After 8 weeks on the HFS diet, rats in the T2D groups were fasted overnight and each rat received a single intraperitoneal injection of streptozotocin (STZ, Sigma, USA) at a dose of 30 mg/kg body weight the following morning while the rats in the control group were injected with an equal volume of citrate buffer. The STZ was freshly diluted in citrate buffer (0.1 mol/l, pH 4.0). After the injection, the HFS diet feeding was continued.” left out

[8] = tested on: retina of type II diabetic rats; assay: Retinal histopathology (hematoxylin and eosin), type 2 diabetic model; assay type: in vivo, Sprague–Dawley rats; settings: 40 mg/kg/day scutellarin
Method: as §1, with “After 8 weeks on the HFS diet, rats in the T2D groups were fasted overnight and each rat received a single intraperitoneal injection of streptozotocin (STZ, Sigma, USA) at a dose of 30 mg/kg body weight the following morning while the rats in the control group were injected with an equal volume of citrate buffer. The STZ was freshly diluted in citrate buffer (0.1 mol/l, pH 4.0). After the injection, the HFS diet feeding was continued.” left out

[9] = tested on: vWF; assay: Western blot of retinal homogenates, vWF; assay type: in vivo, Sprague–Dawley rats; settings: diabetic rats, 40 mg/kg/day scutellarin, 8 weeks, compared to diabetic rats treated with or without Chit-DC
Method: as §1, with “After 8 weeks on the HFS diet, rats in the T2D groups were fasted overnight and each rat received a single intraperitoneal injection of streptozotocin (STZ, Sigma, USA) at a dose of 30 mg/kg body weight the following morning while the rats in the control group were injected with an equal volume of citrate buffer. The STZ was freshly diluted in citrate buffer (0.1 mol/l, pH 4.0). After the injection, the HFS diet feeding was continued.” left out

[10] = tested on: Caco-2 cell monolayers; assay: Caco-2 cell permeability (AP to BL transport); assay type: in vitro ADME, human; settings: estimated from Papp based on the previous research
Method: (§2) Caco-2 cells were seeded in 12-well transport inserts at a density of 2 × 10^5 cells/cm^2 in DMEM. Cells were maintained at 37 °C in a humidified atmosphere containing 5% CO2 for 21 days. Monolayers with transendothelial electrical resistance values above 300 Ω cm^2 were used in this study. On the day of the transport experiments, the culture medium was replaced with hank’s balanced salt solution (HBSS). Before the assay, Caco-2 cells monolayers was rinsed twice and incubated with the transport medium for an hour. After removing the transport medium, scutellarin, Chit-DC-Scu, Chit-DC-VB12-Scu (10 μg/ml scutellarin) alone or in the presence of IF ([…], 20 μl of a 100 IU/ml solution) were add to the apical side (0.5 ml) and 1.5 ml DMEM was added to the basolateral side of Transwell inserts. Cells were maintained at 37 °C in a humidified atmosphere containing 5% CO2 with orbital shaking at 50 rpm throughout the assay. At pre-determined intervals of 0, 30, 60, 90 and 120 min, 50 μl of transport buffer at the basolateral side was collected and mixed with the same volume of methanol, and an equal amount of DMEM was instantly added to the basolateral side to maintain a constant dissolution volume. The assay was performed in triplicate. Concentrations of scutellarin, Chit-DC-Scu and Chit-DC-VB12-Scu in corresponding samples were assessed by HPLC [35, 36].

[11] = Caco-2 cell permeability (AP to BL transport); assay type: in vitro ADME, human; settings: human; Caco-2 monolayers, 10 μg/ml scutellarin, without IF; read-out: Papp, AP side to BL side
Method: as §2

[12] = T2D rats, intragastric, 8 weeks, compared to DM rats

Row | SMILES | water solubility of triamcinolone acetonide acetate ([1]; free drug versus loaded in deoxycholic acid-modified chitosan nanoparticles) [mg/mL] | retinal blood flow velocity [2, 12] | retinal resistivity index (RI) [2, 12] | blood flow velocity or RI in normal rats ([2]; normal (non-diabetic) rats) | half-life ([3]; read-out: T1/2(α) (converted)) [min] | half-life ([3]; read-out: T1/2(β) (converted)) [min] | Cmax ([3]; plasma scutellarin) [ng/mL] | Tmax ([3]; plasma scutellarin) [h] | increase of Papp(AP-BL) [4] [fold] | expression of VEGF in the retina [5] | solubility in distilled water ([6]; distilled water) | solubility in methanol and PBS solution ([6]; methanol and PBS solution (pH7.2)) | water solubility [1] [mg/mL] | expression of VEGFR2 in the retina [7] | retinal morphology (HE staining) in normal rats [8] | expression of vWF in the retina [9] | scutellarin absorbed by the small intestine [10] | Papp at 120 min, 10 μg/ml [11] [×10⁻⁶ cm/s]
1 | CC(=O)OCC(=O)[C@@]12OC(C)(C)O[C@@H]1C[C@H]1[C@@H]3CCC4=CC(=O)C=C[C@]4(C)[C@@]3(F)[C@@H](O)C[C@@]12C [triamcinolone acetonide acetate] | 0.3 |  |  |  |  |  |  |  |  |  |  |  |  |  |  |  |  | 
2 | O=C(O)[C@H]1O[C@@H](Oc2cc3oc(-c4ccc(O)cc4)cc(=O)c3c(O)c2O)[C@H](O)[C@@H](O)[C@@H]1O [Scu, 4′,5,6-trihydroxyflavone-7-O-glucuronide] |  | increased blood flow velocities | reduced retinal RI values | No significant changes in blood flow velocity or RI | 24.3 ± 3.3 | 113 ± 6.3 | 129 ± 85.5 | 1.24 ± 0.025 | 3.5 | downregulated | poorly dissolved | soluble | 0.16 (≈ 346 µM) | downregulated | continuous with normal capillary structure | downregulated | about 1% | 0.32
